# Assay results from patent publication US10023591B2, “Heterocyclic derivatives and use thereof” (C&C RESEARCH LABORATORIES, priority 2014, dated 2018).
# Assays:
# [1] = test system: DU-145 prostate cancer cell line; test: Cell growth inhibition assay, DU-145 (CellTiter-Glo); format: cell-based; conditions: Homo sapiens; DU-145, 3,000 cells/well, 96 hours
# Description: (§1) The inhibitory effects of the compounds of the present invention against the growth of cancer cells were evaluated as shown below. The cancer cell lines including prostate cancer cell lines (LNCaP, DU-145), stomach cancer cell line (NCI-N87), and breast cancer cell lines (MDA-MB-468) were cultured under the protocol provided by each supplier. A medium supplemented with 10 ng/mL of IL-6 was used for LNCaP, a prostate cancer cell line, when treated with a drug. Each type of cells to be used in experiments was sub-cultured in a 96-well plate by counting the exact number of cells using Tali™ Image-based Cytometer (Life Technologies). In a 96-well plate, DU-145 was employed with 3,000 cells/well; NCI-N87 was employed with 5,000 cells/well; and LNCaP and MDA-MB-468 were employed with 10,000 cells/well. The cells were treated with the compounds listed in Examples which were diluted in various concentrations. Upon completion of the compounds treatment, LNCaP, DU-145, NCI-N87 cells were cultured at 37° C. under 5% CO2 for 96 hours, and MDA-MB-468 cells were cultured at 37° C. in air for 96 hours. Subsequently, the cells were observed under microscope and drug precipitation and particular findings were investigated and recorded. And then, the 96-well plate was placed at room temperature for 30 minutes, added with 20 pt/well of CellTiter-Glo solution (Cat No. G7573, Promega) and shaken for 10 minutes, followed by being subjected to the measurement using PHERAstar™ microplate reader (BMG LABTECH) according to the supplier's general luminometer protocol. Wells where only culture liquid added without cell plating were used as a negative control, whereas wells where culture liquid containing 0.1% DMSO instead of the compounds listed in Examples were used as a positive control.
# STAT3 = STAT3 reporter gene assay (luciferase), LNCaP stable cell line pSTAT3-TA-luc, IL-6 stimulation; format: cell-based, human; conditions: Homo sapiens
# Outline: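 LNCaP cells stably carrying pSTAT3-TA-luc were plated 24 h in 3% DCC-FBS medium, then given compound followed by IL-6 (10 ng/mL final) for 24 h at 37 °C. Luciferase was read from lysates, with CellTiter-Glo viability on a duplicate plate. Stimulated 0.1% DMSO wells served as uninhibited control.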
# [2] = test system: LNCaP prostate cancer cell line; test: Cell growth inhibition assay, LNCaP (CellTiter-Glo); format: cell-based; conditions: Homo sapiens; LNCaP, 10,000 cells/well, medium with 10 ng/mL IL-6, 96 hours
# Description: as §1
# STAT1 = STAT1 reporter gene assay (luciferase), U2OS stable cell line pGL4-STAT1-TA-luc, IFN-γ stimulation; format: cell-based, human; conditions: Homo sapiens, IFN-γ 50 ng/mL, 8 hours, read-out: IC50 (μM) pSTAT1
# Outline: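 U2OS cells stably carrying a STAT1-driven luciferase reporter were treated with serially diluted compounds plus IFN-γ (50 ng/mL final) for 8 h at 37 °C in 10% FBS medium. Luciferase read after lysis; parallel plate assessed for cytotoxicity by CellTiter-Glo.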
Compound,IC50 [1] [µM],IC50 (STAT3) [µM],IC50 [2] [µM],IC50 (STAT1) [µM]
"CC(C)(c1cc(Cl)cc(NC(=O)c2cc3cc(C(C)(C)S(C)(=O)=O)ccc3s2)c1)c1ccc(Cl)s1 [Example 27, N-(3-chloro-5-(2-(5-chlorothiophen-2-yl)propan-2-yl)phenyl)-5-(2-(methylsulfonyl)propan-2-yl)benzo[b]thiophene-2-carboxamide]",0.024,0.075,0.029,> 50
"CC(C)Oc1cc(OC(F)(F)F)cc(C(C)(C)c2cc(Cl)cc(NC(=O)c3cc4cc(CS(C)(=O)=O)ccc4s3)c2)c1 [Example 16, N-(3-chloro-5-(2-(3-isopropoxy-5-(trifluoromethoxy)phenyl)propan-2-yl)phenyl)-5-((methylsulfonyl)methyl)benzo[b]thiophene-2-carboxamide]",0.0018,0.0057,0.0022,> 50
"CC(C)(c1ccc(F)cc1)c1cc(Cl)cc(NC(=O)c2cc3cc(C(C)(C)S(C)(=O)=O)ccc3s2)c1 [Example 18, N-(3-chloro-5-(2-(4-fluorophenyl)propan-2-yl)phenyl)-5-(2-(methylsulfonyl)propan-2-yl)benzo[b]thiophene-2-carboxamide]",0.023,0.031,0.056,> 50
"CC(C)(c1ccc(Cl)cc1)c1cc(Cl)cc(NC(=O)c2cc3cc(CS(=O)(=O)C(F)(F)F)ccc3s2)c1 [Example 24, N-(3-chloro-5-(2-(4-chlorophenyl)propan-2-yl)phenyl)-5-(((trifluoromethyl)sulfonyl)methyl)benzo[b]thiophene-2-carboxamide]",> 1.1,0.9,> 1.1,> 50
"CC(C)(c1ccc(Cl)cc1)c1cc(Cl)cc(NC(=O)c2cc3cc(C(F)S(C)(=O)=O)ccc3s2)c1 (stereo not drawn) [Example 25, N-(3-chloro-5-(2-(4-chlorophenyl)propan-2-yl)phenyl)-5-(fluoro(methylsulfonyl)methyl)benzo[b]thiophene-2-carboxamide]",0.066,0.034,0.072,> 50
"CC(C)(c1ccc(Cl)cc1)c1cc(Cl)cc(NC(=O)c2cc3cc(C4(S(C)(=O)=O)CC4)ccc3s2)c1 [Example 33, N-(3-chloro-5-(2-(4-chlorophenyl)propan-2-yl)phenyl)-5-(1-(methylsulfonyl)cyclopropyl)benzo[b]thiophene-2-carboxamide]",0.023,0.054,0.03,> 50
"COc1ccc(C(C)(C)c2cc(Cl)cc(NC(=O)c3cc4cc(C(C)(C)S(C)(=O)=O)ccc4s3)c2)cc1 [Example 17, N-(3-chloro-5-(2-(4-methoxyphenyl)propan-2-yl)phenyl)-5-(2-(methylsulfonyl)propan-2-yl)benzo[b]thiophene-2-carboxamide]",0.039,0.045,0.08,> 50
"CS(=O)(=O)Cc1ccc2sc(C(=O)Nc3cc(Cl)cc(-c4ccc(F)cc4F)c3)cc2c1 [Example 95, N-(5-chloro-2′,4′-difluoro-[1,1′-biphenyl]-3-yl)-5-((methylsulfonyl)methyl)benzo[b]thiophene-2-carboxamide]",0.013,0.028,0.023,35.7
"CC1(C)CC(Oc2cc(Cl)cc(NC(=O)c3cc4cc(C(C)(C)S(C)(=O)=O)ccc4s3)c2)CC(C)(C)N1 [Example 92, N-(3-chloro-5-((2,2,6,6-tetramethylpiperidin-4-yl)oxy)phenyl)-5-(2-(methylsulfonyl)propan-2-yl)benzo[b]thiophene-2-carboxamide]",> 1.1,5.5,> 1.1,9.6
"CC(C)(c1ccc(Cl)cc1)c1cc(Cl)cc(NC(=O)c2cc3cc(CS(C)(=O)=O)ccc3s2)c1 [Example 21, N-(3-chloro-5-(2-(4-chlorophenyl)propan-2-yl)phenyl)-5-((methylsulfonyl)methyl)benzo[b]thiophene-2-carboxamide]",0.017,0.11,0.04,> 50

# Results, then the molecule that gave them:
IC50 [1] [µM],IC50 (STAT3) [µM],IC50 [2] [µM],IC50 (STAT1) [µM],Compound
0.0053,0.018,0.0083,> 50,"CC(C)(c1ccc2sc(C(=O)Nc3cc(Cl)cc(Oc4ccc(C(F)(F)F)cc4)c3)cc2c1)S(C)(=O)=O [Example 38, N-(3-chloro-5-(4-(trifluoromethyl)phenoxy)phenyl)-5-(2-(methylsulfonyl)propan-2-yl)benzo[b]thiophene-2-carboxamide]"
0.037,0.078,0.53,> 50,"CC(C)(c1cc2cc(C(=O)Nc3cc(Cl)cc(Oc4ccc(Cl)cc4)c3)sc2cc1Cl)S(C)(=O)=O [Example 45, 6-chloro-N-(3-chloro-5-(4-chlorophenoxy)phenyl)-5-(2-(methylsulfonyl)propan-2-yl)benzo[b]thiophene-2-carboxamide]"
0.17,0.18,0.26,> 50,"CC(C)(c1ccc2sc(C(=O)Nc3cc(Cl)cc(Oc4ccc(Cl)cc4)n3)cc2c1)S(C)(=O)=O [Example 66, N-(4-chloro-6-(4-chlorophenoxy)pyridin-2-yl)-5-(2-(methylsulfonyl)propan-2-yl)benzo[b]thiophene-2-carboxamide]"
0.011,0.023,0.032,> 50,"CC(C)(c1ccc2sc(C(=O)Nc3cc(Cl)cc(Oc4ccc(F)cc4)c3)cc2c1)S(C)(=O)=O [Example 43, N-(3-chloro-5-(4-fluorophenoxy)phenyl)-5-(2-(methylsulfonyl)propan-2-yl)benzo[b]thiophene-2-carboxamide]"
0.02,0.033,0.037,> 50,"COc1cc(F)cc(Oc2cc(Cl)cc(NC(=O)c3cc4cc(C(C)(C)S(C)(=O)=O)ccc4s3)c2)c1 [Example 53, N-(3-chloro-5-(3-fluoro-5-methoxyphenoxy)phenyl)-5-(2-(methylsulfonyl)propan-2-yl)benzo[b]thiophene-2-carboxamide]"
> 1.1,5.2,> 1.1,13.3,"CC(C)(c1ccc2sc(C(=O)Nc3cc(OCCN)cc(Oc4ccc(Cl)cc4)c3)cc2c1)S(C)(=O)=O [Example 94, N-(3-(2-aminoethoxy)-5-(4-chlorophenoxy)phenyl)-5-(2-(methylsulfonyl)propan-2-yl)benzo[b]thiophene-2-carboxamide]"
0.0071,0.015,0.01,> 50,"CC(C)(c1ccc2sc(C(=O)Nc3cc(Cl)cc(Oc4ccc(OC(F)(F)F)cc4)c3)cc2c1)S(C)(=O)=O [Example 37, N-(3-chloro-5-(4-(trifluoromethoxy)phenoxy)phenyl)-5-(2-(methylsulfonyl)propan-2-yl)benzo[b]thiophene-2-carboxamide]"
0.0066,0.031,0.031,> 50,"CN(c1cc(Cl)cc(NC(=O)c2cc3cc(C(C)(C)S(C)(=O)=O)ccc3s2)c1)c1ccc(F)cc1F [Example 98, N-(3-chloro-5-((2,4-difluorophenyl)(methyl)amino)phenyl)-5-(2-(methylsulfonyl)propan-2-yl)benzo[b]thiophene-2-carboxamide]"
0.0059,0.014,0.029,> 50,"CC(C)(c1ccc2sc(C(=O)Nc3cc(Cl)cc(Oc4ccc(Cl)c(F)c4)c3)cc2c1)S(C)(=O)=O [Example 54, N-(3-chloro-5-(4-chloro-3-fluorophenoxy)phenyl)-5-(2-(methylsulfonyl)propan-2-yl)benzo[b]thiophene-2-carboxamide]"
0.063,0.16,0.12,> 50,"CS(=O)(=O)Cc1ccc2sc(C(=O)Nc3cc(Cl)cc(Oc4ccc(Cl)cc4)c3)cc2c1 [Example 41, N-(3-chloro-5-(4-chlorophenoxy)phenyl)-5-((methylsulfonyl)methyl)benzo[b]thiophene-2-carboxamide]"
> 1.1,1.25,> 1.1,> 50,"O=C(Nc1cc(Cl)cc(Oc2ccc(Cl)cc2)c1)c1cc2cc(CS(=O)(=O)C(F)(F)F)ccc2s1 [Example 42, N-(3-chloro-5-(4-chlorophenoxy)phenyl)-5-(((trifluoromethyl)sulfonyl)methyl)benzo[b]thiophene-2-carboxamide]"
